The source of these data is publication PMC10687260, “1,3-Diphenylureido hydroxamate as a promising scaffold for generation of potent antimalarial histone deacetylase inhibitors” (Scientific Reports, 2023).

Series [1] deals with P. falciparum 3D7. Kind of series: Antiplasmodial SYBR Green I proliferation assay, P. falciparum 3D7. The settings on record: read-out: IC50 Pf3D7. It is filed as cell-based, Plasmodium falciparum. The text has this: (§1) Antiplasmodial activity against P. falciparum 3D7 (A, C and E) and P. falciparum Dd2 (B, D, F). […] Curves were plotted using non-linear regression based on means from three independent experiments measured in triplicate. Error bars indicate standard deviation, whose values are provided in the respective table.
(§2) Plasmodium falciparum culture and antiplasmodial activity. […] Development, parasitaemia, and morphology of parasites were monitored by light microscopy of thin blood smears stained according to the Romanowsky method (Panótico Rápido staining kit; Laborclin, Pinhais, Paraná, Brazil). […] Fresh 0^+ blood was generously provided by “Hospital Novo Atibaia” (Atibaia, SP, Brazil), and approved by the ethics committee at ICB-USP. The antiplasmodial effect of all compounds was validated against P. falciparum 3D7 strain conducting SYBR Green I (Invitrogen) drug assays as previously reported[30],[46] as a modification of the original procedure. […] Parasite proliferation was measured by the DNA load via fluorescence, using 100 μL of a lysis buffer with SYBR Green I (0.02% v/v) and incubated for 1 h at room temperature in the dark. […] Focal and gain adjustment was performed using the non-treated controls (highest expected fluorescence signal). Data was acquired via the CLARIOstar (V5.20) and MARS software, manually scaled to 0–100%, and plotted using GraphPad Prism (v9.5.2 for Windows, GraphPad Software, La Jolla California USA, www.graphpad.com). Non-treated parasites, the highest solvent concentration on parasites, CQ on parasites, and the highest drug concentration in the medium were used as controls for maximal growth, solvent control, positive biological control, and native drug fluorescence, respectively.

A further series has as its system P. falciparum Dd2. Kind of series: Antiplasmodial SYBR Green I proliferation assay, P. falciparum Dd2. It is filed as cell-based. To be noted: Plasmodium falciparum.
Text: as §1, §2

The test system of the next series is HepG2 cells. Put plainly: Cytotoxicity in human HepG2 cells (WST-1). To be noted: read-out: IC50 HepG2. In kind it is cell-based. How it is done:
Cytotoxicity in human HepG2 cells.[47] […] Cytotoxic effects of compounds were assessed using the cell proliferation reagent WST-1 (Roche; CELLPRO-RO) in a 96-well plate-based screening assay. HepG2 cells were seeded at 10^4 cells/well (100 μL) in 96-well flat-bottom plates (Sarstedt) the night before the experiment to allow attachment of cells. The next day, two-fold serial dilutions of compounds were prepared in fresh medium in an extra plate, and the medium of cells was replaced by the medium containing the compound dilutions. Non-treated cells (max. proliferation), cells treated with the maximal solvent concentration (DMSO; solvent control), and medium with the maximal compound concentration (native absorbance) used as controls. […] Subsequently, 10 μL WST-1 was added to each well and plates were incubated for additional 4 h under standard conditions. WST-1 is a tetrazolium salt and is metabolised by the mitochondrial succinate-tetrazolium-reductase system of living cells and forms formazan, whose absorbance was measured at 450 nm. Absorbance at 630 nm was assessed to check for protein and precipitation background. Both measurements were acquired via the CLARIOstar (V5.20) and MARS software, manually scaled to 0–100%, and plotted with GraphPad Prism (version 9.5.2 for Windows, GraphPad Software, La Jolla California USA).

The target in another series is T1, CYP1A2 (Homo sapiens, UniProt P05177).
T1 construct: 10 μM compound was incubated with human liver microsomes and selective marker substrates; from tissue; host or cells: human liver microsomes
T1 sequence (P05177 1-516): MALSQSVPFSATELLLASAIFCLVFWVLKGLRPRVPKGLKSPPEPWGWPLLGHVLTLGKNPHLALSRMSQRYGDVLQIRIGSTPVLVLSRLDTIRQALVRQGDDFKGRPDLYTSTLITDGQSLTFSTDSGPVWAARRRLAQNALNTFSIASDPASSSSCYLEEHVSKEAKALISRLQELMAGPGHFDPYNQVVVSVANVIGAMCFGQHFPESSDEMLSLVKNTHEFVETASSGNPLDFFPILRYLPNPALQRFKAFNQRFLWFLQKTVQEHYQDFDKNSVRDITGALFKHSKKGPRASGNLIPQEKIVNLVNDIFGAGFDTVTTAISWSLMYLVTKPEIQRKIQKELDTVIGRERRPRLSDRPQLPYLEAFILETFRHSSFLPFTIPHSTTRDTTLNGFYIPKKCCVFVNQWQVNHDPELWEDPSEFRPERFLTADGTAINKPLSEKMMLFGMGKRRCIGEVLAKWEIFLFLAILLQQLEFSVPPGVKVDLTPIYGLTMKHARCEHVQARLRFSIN
Kind of series: CYP450 inhibition in human liver microsomes, 1A2. In kind it is in vitro ADME. A general note: Liver microsomes are a subcellular fraction often used to study metabolism.

The next series concerns the target T2, CYP450 2C9 (Homo sapiens, UniProt P11712).
T2 construct: 10 μM compound was incubated with human liver microsomes and selective marker substrates; from tissue; host or cells: human liver microsomes
Kind of series: CYP450 inhibition in human liver microsomes, 2C9. It is filed as in vitro ADME.

The target in another series is T3, PfHDAC1 (Plasmodium falciparum, UniProt Q7K6A1).
T3 construct: purchased BPS Bioscience (San Diego, CA)
T3 sequence (Q7K6A1 1-449): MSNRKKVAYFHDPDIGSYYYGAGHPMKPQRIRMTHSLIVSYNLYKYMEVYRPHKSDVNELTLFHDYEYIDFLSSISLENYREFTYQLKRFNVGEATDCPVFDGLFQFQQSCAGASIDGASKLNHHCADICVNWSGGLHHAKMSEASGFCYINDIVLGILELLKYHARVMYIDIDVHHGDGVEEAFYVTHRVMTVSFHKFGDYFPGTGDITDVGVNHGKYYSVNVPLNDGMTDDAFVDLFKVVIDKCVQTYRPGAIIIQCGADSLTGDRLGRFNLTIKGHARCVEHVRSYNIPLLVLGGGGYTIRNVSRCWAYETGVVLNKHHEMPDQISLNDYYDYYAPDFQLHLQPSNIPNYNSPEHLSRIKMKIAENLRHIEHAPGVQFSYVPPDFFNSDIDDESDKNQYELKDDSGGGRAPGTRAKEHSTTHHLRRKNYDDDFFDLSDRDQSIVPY
Kind of series: In vitro PfHDAC1 enzymatic assay. It is filed as biochemical. The procedure: In vitro PfHDAC1 enzymatic assay. PfHDAC inhibition assays were performed by BPS Bioscience (San Diego, CA). […] Then, each DMSO solution was directly diluted 10 × fold into the HDAC assay buffer for an intermediate dilution of 10% DMSO in HDAC assay buffer. Then, 5 µL of the intermediate dilution was added to a 50 µL reaction so that the final concentration of DMSO is 1% in all the reactions. […] Fluorescence intensity was measured at an excitation of 360 nm and an emission of 460 nm using a Tecan Infinite M1000 microplate reader. […] The fluorescent intensity data were analyzed using GraphPad Prism (v9.5.2). In the absence of the compound, the fluorescent intensity (Ft) in each data set was defined as 100% activity. In the absence of HDAC, the fluorescent intensity (Fb) in each data set was defined as 0% activity. The percent activity in the presence of each compound was calculated according to the following equation: % activity = (F-Fb)/(Ft-Fb), where “F” is the fluorescent intensity in the presence of the compound.

The subject of another series is acetylated histone H3. Kind of series: Western blot of acetylated histone H3 in infected erythrocytes. It is filed as cell-based, Plasmodium falciparum. The settings on record: 10 × IC50 for 4 h, trophozoites, vs DMSO. How it is done: (§3) Figure 5 Hydroxamic acid derivatives as potent in vitro PfHDAC1 inhibitors. […]. Enzyme activity was calculated by normalizing the data against the DMSO treated samples and discounting the background. Data are presented as shown above, with mean ± S.D. (n = 2). […]. Comparison of group/concentration against the DMSO control is represented as † for P < 0.0001. […]. Numbers on side of the bands represent the predicted mass (kDa) for each protein. (C,D) Band quantification of histone H3 (C) and H4 (D), respectively, normalizing their acetylated detection against their unmodified version. Differences to this value were analyzed by one way ANOVA using the Dunnett’s post correction, comparing each group against the DMSO control, as rank tests where P values are explicitly depicted.
(§4) Western Blot analysis. […]. Proteins were transferred to PVDF membranes, 5% non-fat dry milk in TBS with Tween 20 (0.1%) was used as blocking agent for 1 h at room temperature. After, incubated with the antibodies overnight at 4 °C (Acetyl Histone H3 Lys9 C5B11 Cell Signaling, Acetyl Histone H4 Lys16 E2B8W Cell Signaling, Histone H3 96C10 Cell Signaling and Histone H4 D2X4V Cell Signaling). For the analysis of protein acetylation levels, the membranes were stripped and re-probed with the corresponding anti-total protein. Mouse monoclonal anti-α-Tubulin (B512 Sigma-Aldrich) was used as loading control. Detection was performed by enhanced chemiluminescence using horseradish peroxidase-conjugated secondary antibodies (Vector Laboratories, Burlingame, CA, USA) and SuperSignal TM West Pico PLUS Chemiluminescent substrate kit (Thermo Scientific). Images were acquired using ChemiDoc TM Imaging System (BioRad Laboratories, CA, USA). Quantitative densitometry was carried out using ImageLab software (Bio-Rad Laboratories, CA, USA). The volume density of the chemiluminescent bands was calculated as an integrated optical density × mm^2 after background correction from each independent experiment (N = 3).

Another series deals with acetylated histone H4. Kind of series: Western blot of acetylated histone H4 in infected erythrocytes. It is filed as cell-based, Plasmodium falciparum. To be noted: 10 × IC50 for 4 h, trophozoites, vs DMSO. How it is done:
as §3, §4
For orientation: A western blot detects proteins with antibodies after separation by electrophoresis.

Another series concerns the target T4, CYP450 2D6 (Homo sapiens, UniProt P10635).
T4 construct: 10 μM compound was incubated with human liver microsomes and selective marker substrates; from tissue; host or cells: human liver microsomes
Put plainly: CYP450 inhibition in human liver microsomes, 2D6. It is filed as in vitro ADME. To be noted: 10 µM.

The subject of series [2] is P. falciparum 3D7. The settings on record: Fig. 1A; cited from earlier work.

Read-outs that look alike come from different tables or passages of the source.

T2 sequence (P11712 whole entry): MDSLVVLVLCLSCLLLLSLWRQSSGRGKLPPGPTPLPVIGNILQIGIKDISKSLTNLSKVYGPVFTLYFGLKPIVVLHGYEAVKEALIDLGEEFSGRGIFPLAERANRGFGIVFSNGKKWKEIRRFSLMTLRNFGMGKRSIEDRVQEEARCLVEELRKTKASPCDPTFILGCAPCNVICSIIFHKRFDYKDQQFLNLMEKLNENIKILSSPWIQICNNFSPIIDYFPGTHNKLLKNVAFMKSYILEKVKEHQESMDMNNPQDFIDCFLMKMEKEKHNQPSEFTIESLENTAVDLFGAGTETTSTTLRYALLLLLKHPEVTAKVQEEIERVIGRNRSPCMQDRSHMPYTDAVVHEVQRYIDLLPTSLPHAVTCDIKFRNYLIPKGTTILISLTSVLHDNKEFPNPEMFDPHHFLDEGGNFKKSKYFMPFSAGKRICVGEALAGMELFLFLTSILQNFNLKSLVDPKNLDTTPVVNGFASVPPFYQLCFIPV
T4 sequence (P10635 whole entry): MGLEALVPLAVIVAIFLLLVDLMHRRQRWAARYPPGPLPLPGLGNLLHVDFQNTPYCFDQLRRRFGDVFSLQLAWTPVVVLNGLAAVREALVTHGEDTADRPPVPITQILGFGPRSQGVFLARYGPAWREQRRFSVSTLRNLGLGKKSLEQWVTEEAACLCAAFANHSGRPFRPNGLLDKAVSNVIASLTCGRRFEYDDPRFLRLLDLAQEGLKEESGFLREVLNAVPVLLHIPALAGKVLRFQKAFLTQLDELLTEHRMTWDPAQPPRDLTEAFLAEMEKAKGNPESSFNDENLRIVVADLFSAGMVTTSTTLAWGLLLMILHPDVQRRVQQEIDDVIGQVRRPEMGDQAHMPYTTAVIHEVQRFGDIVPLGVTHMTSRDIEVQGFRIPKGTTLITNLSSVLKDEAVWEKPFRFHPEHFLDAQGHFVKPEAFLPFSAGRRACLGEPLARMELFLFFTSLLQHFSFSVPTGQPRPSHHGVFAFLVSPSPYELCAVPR

In the case of `CCN(CC)CCCC(C)Nc1ccnc2cc(Cl)ccc12` (stereo not shown) [Chloroquine, reference compound], the IC50 was 15 nM in the series with P. falciparum 3D7 [1] (Plasmodium falciparum, 3D7, 96 h); 430 nM in the series with P. falciparum Dd2 (DD2, read-out: IC50 P. falciparum Dd2); more than 100000 nM in the series on HepG2 cells (Homo sapiens, HepG2, 48 h).

Turning to `CC(=O)N1CCN(c2ccc(OCC3COC(Cn4ccnc4)(c4ccc(Cl)cc4Cl)O3)cc2)CC1` (stereo not shown) [Ketoconazole, reference compound], the “CYP450% inhibition 1A2” value at CYP1A2 (Tested concentration: 1.0 µM) is recorded as “* (Inhibition < 10%)”. Moreover, the “CYP450% inhibition 2C9” value on CYP450 2C9 (Tested concentration: 1.0 µM) is on record as “* (Inhibition < 10%)”.

`CCCCN(Cc1ccc(C(=O)NO)cc1)C(=O)Nc1ccccc1` [Nexturastat A (16), Nexturastat A, reference compound]: the IC50 in the series on P. falciparum 3D7 [1] (96 h, values in brackets 95% confidence intervals) came out at 230 nM; in the series on P. falciparum 3D7 [1] (Plasmodium falciparum, 3D7, 96 h, 96 h, values in brackets 95% confidence intervals), 210 nM; in the series with P. falciparum Dd2 (DD2, multidrug/CQ-resistant strain, read-out: IC50 P. falciparum Dd2), 290 nM; in the series on HepG2 cells (Homo sapiens, HepG2, 48 h, WST-1) it was 21500 nM. Besides, the inhibition at 1 µM at PfHDAC1 (recombinant PfHDAC1) amounted to 58%. For the same molecule, the inhibition at 10 µM on PfHDAC1 (10 µM, recombinant PfHDAC1) was determined as 92%. For the same molecule, in the series on acetylated histone H3, the “Acetylated-H3 level (normalised to unmodified H3)” value was “non-statistically significant increase”. Further, in the series with acetylated histone H4, the “Acetylated-H4 level (normalised to unmodified H4)” value is “non-statistically significant increase”.

Turning to `C=C[C@H]1C[N@@]2CC[C@H]1C[C@@H]2[C@@H](O)c1ccnc2ccc(OC)cc12` [Quinidine, reference compound], the “CYP450% inhibition @ 10 µM 1A2” value on CYP1A2 (10 µM) was “* (Inhibition < 10%)”. Besides, the “CYP450% inhibition @ 10 µM 2C9” value at CYP450 2C9 (10 µM) was “* (Inhibition < 10%)”. The “CYP450% inhibition @ 10 µM 2D6” value at CYP450 2D6 was 89%.

On to `O=C(CCCCCCC(=O)Nc1ccccc1)NO` [Vorinostat (SAHA, 1), Vorinostat, reference compound], for which the IC50 in the series on HepG2 cells (48 h, WST-1) was 2870 nM; against PfHDAC1, 100 to 1000 nM. For the same molecule, the inhibition at 1 µM on PfHDAC1 (recombinant PfHDAC1) worked out at 83%. Moreover, the “Acetylated-H3 level (normalised to unmodified H3)” value in the series with acetylated histone H3 is given as “non-statistically significant increase”. Further, the “Acetylated-H4 level (normalised to unmodified H4)” value with acetylated histone H4 is given as “non-statistically significant increase”.

In the case of `O=C(/C=C/c1cccc(S(=O)(=O)Nc2ccccc2)c1)NO` [belinostat], the IC50 with P. falciparum 3D7 [2] is 60 nM.

Consider `Nc1ccccc1NC(=O)c1ccc(CNC(=O)OCc2cccnc2)cc1` [entinostat], for which the IC50 with P. falciparum 3D7 [2] is 7800 nM.

In the case of `Cc1[nH]c2ccccc2c1CCNCc1ccc(/C=C/C(=O)NO)cc1` [panobinostat], the IC50 in the series with P. falciparum 3D7 [2] is 10 nM.

In the case of `Cn1cc(CNCC2CCN(c3ncc(C(=O)NO)cn3)CC2)c2ccccc21` [quisinostat], the IC50 in the series with P. falciparum 3D7 [2] is 5 nM.

As usually defined, the IC50 is the concentration that inhibits the measured activity by half. As usually defined, the inhibition is the share of the control response that was lost under treatment.
